Measurements reported in PubChem BioAssay (NCI).
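These data come from cells grown in 96-well plates and exposed to compound for 48 hours at five concentrations. Abbreviation: GI50, concentration required for 50% inhibition of growth. The concentration for full growth arrest is given as TGI.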

Key:
Assay in all cases: NCI-60 cell line screen, 48 h
786-0 renal = test system: 786-0 renal
A498 renal = test system: A498 renal
A549 NSCLC = test system: A549 NSCLC
ACHN renal = test system: ACHN renal
BT-549 breast = test system: BT-549 breast
CAKI-1 renal = test system: CAKI-1 renal
COLO 205 colon = test system: COLO 205 colon
DU-145 prostate = test system: DU-145 prostate
EKVX NSCLC = test system: EKVX NSCLC
HCC-2998 colon = test system: HCC-2998 colon
HCT-116 colon = test system: HCT-116 colon
HCT-15 colon = test system: HCT-15 colon
HL-60(TB) leukemia = test system: HL-60(TB) leukemia
HOP-62 NSCLC = test system: HOP-62 NSCLC
HOP-92 NSCLC = test system: HOP-92 NSCLC
HS 578T breast = test system: HS 578T breast
HT29 colon = test system: HT29 colon
IGROV1 ovarian = test system: IGROV1 ovarian
K-562 leukemia = test system: K-562 leukemia
KM12 colon = test system: KM12 colon
LOX IMVI melanoma = test system: LOX IMVI melanoma
M14 melanoma = test system: M14 melanoma
MALME-3M melanoma = test system: MALME-3M melanoma
MCF7 breast = test system: MCF7 breast
MDA-MB-231 breast = test system: MDA-MB-231 breast
MDA-MB-435 = test system: MDA-MB-435
MOLT-4 leukemia = test system: MOLT-4 leukemia
NCI-H226 lung = test system: NCI-H226 lung
NCI-H23 lung = test system: NCI-H23 lung
NCI-H460 lung = test system: NCI-H460 lung
NCI-H522 lung = test system: NCI-H522 lung
NCI/ADR-RES ovarian = test system: NCI/ADR-RES ovarian
OVCAR-3 ovarian = test system: OVCAR-3 ovarian
OVCAR-4 ovarian = test system: OVCAR-4 ovarian
OVCAR-5 ovarian = test system: OVCAR-5 ovarian
OVCAR-8 ovarian = test system: OVCAR-8 ovarian
PC-3 prostate = test system: PC-3 prostate
RXF 393 renal = test system: RXF 393 renal
SF-268 CNS = test system: SF-268 CNS
SF-295 CNS = test system: SF-295 CNS
SF-539 CNS = test system: SF-539 CNS
SK-MEL-2 melanoma = test system: SK-MEL-2 melanoma
SK-MEL-28 melanoma = test system: SK-MEL-28 melanoma
SK-MEL-5 melanoma = test system: SK-MEL-5 melanoma
SK-OV-3 ovarian = test system: SK-OV-3 ovarian
SN12C renal = test system: SN12C renal
SNB-19 CNS = test system: SNB-19 CNS
SR leukemia = test system: SR leukemia
SW-620 colon = test system: SW-620 colon
T-47D breast = test system: T-47D breast
TK-10 renal = test system: TK-10 renal
U251 CNS = test system: U251 CNS
UACC-257 melanoma = test system: UACC-257 melanoma
UACC-62 melanoma = test system: UACC-62 melanoma
UO-31 renal = test system: UO-31 renal

Q: `OCC#Cc1ccccc1C#CCCCCCCC#Cc1ccccc1C#CCO` was tested. Which GI50 (786-0 renal) did it give?
A: 17.3 µM

Q: What about the TGI (786-0 renal) of the same molecule?
A: 31.1 µM

Q: What about the GI50 (A498 renal) of the same molecule?
A: 21.5 µM

Q: What about the TGI (A498 renal) of the same molecule?
A: 36.1 µM

Q: What about the GI50 (A549 NSCLC) of the same molecule?
A: 17.2 µM

Q: What about the TGI (A549 NSCLC) of the same molecule?
A: 33.9 µM

Q: And the GI50 (ACHN renal)?
A: 17.4 µM

Q: And the TGI (ACHN renal)?
A: 31.5 µM

Q: And the GI50 (BT-549 breast)?
A: 20.2 µM

Q: What about the TGI (BT-549 breast) of the same molecule?
A: 37.9 µM

Q: What about the GI50 (CAKI-1 renal) of the same molecule?
A: 17.4 µM

Q: And the TGI (CAKI-1 renal)?
A: 32.8 µM

Q: What about the GI50 (COLO 205 colon) of the same molecule?
A: 18.8 µM

Q: And the TGI (COLO 205 colon)?
A: 36.4 µM

Q: And the GI50 (DU-145 prostate)?
A: 19.1 µM

Q: And the TGI (DU-145 prostate)?
A: 35.1 µM

Q: And the GI50 (EKVX NSCLC)?
A: 17.5 µM

Q: And the TGI (EKVX NSCLC)?
A: 32.7 µM

Q: And the GI50 (HCC-2998 colon)?
A: 17.7 µM

Q: And the TGI (HCC-2998 colon)?
A: 31.5 µM

Q: And the GI50 (HCT-116 colon)?
A: 10.7 µM

Q: What about the TGI (HCT-116 colon) of the same molecule?
A: 24.5 µM

Q: What about the GI50 (HCT-15 colon) of the same molecule?
A: 23.2 µM

Q: What about the TGI (HCT-15 colon) of the same molecule?
A: 59.6 µM

Q: What about the GI50 (HL-60(TB) leukemia) of the same molecule?
A: 25.2 µM

Q: And the TGI (HL-60(TB) leukemia)?
A: 48.5 µM

Q: What about the GI50 (HOP-62 NSCLC) of the same molecule?
A: 9.78 µM

Q: And the TGI (HOP-62 NSCLC)?
A: 25.8 µM

Q: What about the GI50 (HOP-92 NSCLC) of the same molecule?
A: 13.1 µM

Q: And the TGI (HOP-92 NSCLC)?
A: 26.5 µM

Q: What about the GI50 (HS 578T breast) of the same molecule?
A: 18.2 µM

Q: And the TGI (HS 578T breast)?
A: 39.1 µM

Q: What about the GI50 (HT29 colon) of the same molecule?
A: 22.7 µM

Q: What about the TGI (HT29 colon) of the same molecule?
A: > 75.9 µM

Q: And the GI50 (IGROV1 ovarian)?
A: 7.97 µM

Q: What about the TGI (IGROV1 ovarian) of the same molecule?
A: 44.3 µM

Q: And the GI50 (K-562 leukemia)?
A: 15.8 µM

Q: What about the TGI (K-562 leukemia) of the same molecule?
A: 40.8 µM

Q: And the GI50 (KM12 colon)?
A: 18.1 µM

Q: And the TGI (KM12 colon)?
A: 37.1 µM

Q: And the GI50 (LOX IMVI melanoma)?
A: 18 µM

Q: What about the TGI (LOX IMVI melanoma) of the same molecule?
A: 34.7 µM

Q: And the GI50 (M14 melanoma)?
A: 5.64 µM

Q: What about the TGI (M14 melanoma) of the same molecule?
A: 22.9 µM

Q: What about the GI50 (MALME-3M melanoma) of the same molecule?
A: 15.7 µM

Q: What about the TGI (MALME-3M melanoma) of the same molecule?
A: 30.1 µM

Q: And the GI50 (MCF7 breast)?
A: 18.4 µM

Q: And the TGI (MCF7 breast)?
A: 40.7 µM

Q: And the GI50 (MDA-MB-231 breast)?
A: 9.97 µM

Q: And the TGI (MDA-MB-231 breast)?
A: 24.8 µM

Q: And the GI50 (MDA-MB-435)?
A: 18.1 µM

Q: What about the TGI (MDA-MB-435) of the same molecule?
A: 34.1 µM

Q: And the GI50 (MOLT-4 leukemia)?
A: 11.1 µM

Q: What about the TGI (MOLT-4 leukemia) of the same molecule?
A: 30.8 µM

Q: And the GI50 (NCI-H226 lung)?
A: 16.4 µM

Q: And the TGI (NCI-H226 lung)?
A: 33.1 µM

Q: What about the GI50 (NCI-H23 lung) of the same molecule?
A: 17.1 µM

Q: What about the TGI (NCI-H23 lung) of the same molecule?
A: 30.9 µM

Q: And the GI50 (NCI-H460 lung)?
A: 20.5 µM

Q: What about the TGI (NCI-H460 lung) of the same molecule?
A: 47.4 µM

Q: What about the GI50 (NCI-H522 lung) of the same molecule?
A: 0.882 µM

Q: What about the GI50 (NCI/ADR-RES ovarian) of the same molecule?
A: 17.7 µM

Q: And the TGI (NCI/ADR-RES ovarian)?
A: 33 µM

Q: What about the GI50 (OVCAR-3 ovarian) of the same molecule?
A: 18.3 µM

Q: And the TGI (OVCAR-3 ovarian)?
A: 33.4 µM

Q: What about the GI50 (OVCAR-4 ovarian) of the same molecule?
A: 18.4 µM

Q: What about the TGI (OVCAR-4 ovarian) of the same molecule?
A: 45.6 µM

Q: And the GI50 (OVCAR-5 ovarian)?
A: 17 µM

Q: And the TGI (OVCAR-5 ovarian)?
A: 30.7 µM

Q: What about the GI50 (OVCAR-8 ovarian) of the same molecule?
A: 17 µM

Q: What about the TGI (OVCAR-8 ovarian) of the same molecule?
A: 35.8 µM

Q: And the GI50 (PC-3 prostate)?
A: 15.9 µM

Q: What about the TGI (PC-3 prostate) of the same molecule?
A: 33.3 µM

Q: What about the GI50 (RXF 393 renal) of the same molecule?
A: 16.8 µM

Q: What about the TGI (RXF 393 renal) of the same molecule?
A: 33.6 µM

Q: What about the GI50 (SF-268 CNS) of the same molecule?
A: 16.2 µM

Q: What about the TGI (SF-268 CNS) of the same molecule?
A: 32.5 µM

Q: And the GI50 (SF-295 CNS)?
A: 14.6 µM

Q: And the TGI (SF-295 CNS)?
A: 28.6 µM

Q: And the GI50 (SF-539 CNS)?
A: 18.7 µM

Q: And the TGI (SF-539 CNS)?
A: 32.8 µM

Q: What about the GI50 (SK-MEL-2 melanoma) of the same molecule?
A: 34.6 µM

Q: What about the TGI (SK-MEL-2 melanoma) of the same molecule?
A: > 100 µM

Q: And the GI50 (SK-MEL-28 melanoma)?
A: 23.6 µM

Q: What about the TGI (SK-MEL-28 melanoma) of the same molecule?
A: 62.2 µM

Q: What about the GI50 (SK-MEL-5 melanoma) of the same molecule?
A: 17 µM

Q: What about the TGI (SK-MEL-5 melanoma) of the same molecule?
A: 31.3 µM

Q: And the GI50 (SK-OV-3 ovarian)?
A: 15.8 µM

Q: What about the TGI (SK-OV-3 ovarian) of the same molecule?
A: 30.5 µM

Q: And the GI50 (SN12C renal)?
A: 15.8 µM

Q: And the TGI (SN12C renal)?
A: 31.1 µM

Q: What about the GI50 (SNB-19 CNS) of the same molecule?
A: 18.6 µM

Q: And the TGI (SNB-19 CNS)?
A: 34.2 µM

Q: And the GI50 (SR leukemia)?
A: 16 µM

Q: What about the TGI (SR leukemia) of the same molecule?
A: 34.6 µM

Q: What about the GI50 (SW-620 colon) of the same molecule?
A: 22.2 µM

Q: What about the TGI (SW-620 colon) of the same molecule?
A: 41.6 µM

Q: And the GI50 (T-47D breast)?
A: 18.1 µM

Q: And the TGI (T-47D breast)?
A: 33.7 µM

Q: And the GI50 (TK-10 renal)?
A: 19.2 µM

Q: And the TGI (TK-10 renal)?
A: 34.2 µM

Q: And the GI50 (U251 CNS)?
A: 18.2 µM

Q: What about the TGI (U251 CNS) of the same molecule?
A: 34.1 µM

Q: And the GI50 (UACC-257 melanoma)?
A: 18.9 µM

Q: What about the TGI (UACC-257 melanoma) of the same molecule?
A: 34.5 µM

Q: What about the GI50 (UACC-62 melanoma) of the same molecule?
A: 16.8 µM

Q: What about the TGI (UACC-62 melanoma) of the same molecule?
A: 31.4 µM

Q: And the GI50 (UO-31 renal)?
A: 24 µM

Q: And the TGI (UO-31 renal)?
A: > 53.1 µM
